Experimental findings from ChEMBL document CHEMBL1143702, “Synthesis and biological evaluation of (+/-)-abyssinone II and its analogues as aromatase inhibitors for chemoprevention of breast cancer” (J Med Chem, 2007) are described below.

The experiment deals with T1, Aromatase (Homo sapiens, UniProt P11511).
T1 sequence (P11511 whole entry): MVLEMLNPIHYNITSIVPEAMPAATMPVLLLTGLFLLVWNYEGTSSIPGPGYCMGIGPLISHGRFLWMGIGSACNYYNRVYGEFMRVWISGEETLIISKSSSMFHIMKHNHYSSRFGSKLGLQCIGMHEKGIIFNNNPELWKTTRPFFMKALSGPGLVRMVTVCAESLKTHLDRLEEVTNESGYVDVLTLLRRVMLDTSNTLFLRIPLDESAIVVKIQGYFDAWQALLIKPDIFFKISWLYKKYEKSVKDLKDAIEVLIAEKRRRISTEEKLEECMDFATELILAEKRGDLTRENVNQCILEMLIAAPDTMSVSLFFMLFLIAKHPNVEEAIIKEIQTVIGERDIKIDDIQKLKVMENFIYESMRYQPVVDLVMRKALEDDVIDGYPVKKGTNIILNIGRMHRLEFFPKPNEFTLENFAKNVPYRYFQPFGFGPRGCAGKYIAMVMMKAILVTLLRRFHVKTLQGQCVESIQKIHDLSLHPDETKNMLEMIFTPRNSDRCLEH
Description: Inhibition of human aromatase

As a reminder, the IC50 is the point on the concentration scale where inhibition reaches its midpoint. The compound `COCOc1ccc(C(=O)/C=C/c2ccc(OCOC)c(CC=C(C)C)c2)c(O)c1` registered an IC50 of more than 242 µM.

Consider `COc1ccc(C(=O)/C=C/c2ccc(OCC=C(C)C)cc2)c(O)c1`, for which the IC50 is more than 271 µM.
